According to US20030073654A1, “Stabilized transient gene expression” (Genespan Corporation, priority 1996, published 2003):
Entries after “also recorded” stand apart in the source; their conditions may differ.

Tests used:
SW480 cells [1] = assay: Assay for cytotoxicity (trypan blue viability, 8 day static culture); assay type: cell-based, human; conditions: Table 13, protocol of Example 10
Description: 1. […] However, it should be understood that various types of cells vary in their sensitivity to different chemical compounds. Thus, while SW480 cells may be used as a convenient tool for determining biocompatible concentrations of the chemical compounds, it may be necessary to empirically adjust the concentrations determined with SW480 cells in order to optimize biocompatibility with other types of cells.
A number of chemical compounds were tested in 6-well plates according to the protocol described in Example 1 to determine the relationship between their cytotoxicity and their ability to promote the uptake and expression of foreign genes in SW480 cells. Unless otherwise noted, except for the control, all plates contained 4 mM L-glutamine as well as gentamicin to retard bacterial growth.
Cytotoxicity assays were performed as follows. SW480 cells (approximately 1×10^6 cells per well) were plated in 1 ml of RPMI in 6-well culture dishes at day zero in the presence of the chemical compound whose cytotoxicity was being tested. Twenty-four hours after seeding the wells, the RPMI medium was removed, and liposomes containing foreign DNA were added to the culture in 1 ml of OPTI-MEM medium, as described in Example 1. The transfection medium also contained the chemical compounds whose cytotoxicity was being tested. Control plates were included that were identical to the test plates, except that the test compounds were not present in the culture medium. Test and control cultures were grown under “static” conditions, i.e., the plates were not shaken, rotated, or otherwise agitated. Each day for a total of 8 days, the cells from one test well and one control well were harvested and viability assessed by staining with trypan blue. […] The chondroitin sulfate used here was as in Example 2.

SW480 cells [2] = assay: Influence of polysaccharide size/type on transient expression (protocol of plate #6, polysaccharide substituted for chondroitin sulfate); assay type: cell-based, human; conditions: for FACTOR G / FACTOR K / FACTOR X / Total β-gal (ng) from 2 × 10^4 Cells in 14 Days: Table 13; for effectiveness in enhancing transient expression: running text of Example 10
Description: A 15 plate experiment was conducted in which the chemical compounds indicated in Table 9 were added to the culture medium of SW480 cells that were transfected in 6-well plates as detailed in Example 1. […] The chondroitin sulfate used for these experiments was as in Example 2. The most efficacious formulations, in order of their effectiveness, were those used in plates 6, 3, 13 and 14. […] The following experiments were conducted to determine the effects of polysaccharide size on their effectiveness in enhancing transient expression. […] The chondroitin sulfate used for these comparisons was obtained either from Biorelease, or was prepared by treating large (>20 kDa) chondroitin sulfate (Type A) with alkali, then acid. The size of the non-purchased preparations was determined by electrophoretic comparison with Biorelease 4 kDa chondroitin sulfate using PhastSystem gels in accord with the manufacturer's instructions (Pharmacia). The results are shown in Table 11, in which the ranges observed for X and […] in the four trials are shown in parentheses below the averages. […] Table 12 also presents the results of the Limulus amebocyte lysate (LAL) endotoxin assay, expressed as endotoxin units per ml (Eu/ml), which was performed on all media used before, during and after transfection, but before adding serum. This assay provides a quantitative measure for Gram-negative bacterial endotoxin in aqueous solutions. […] The LAL results in Table 12 are those for the post-transfection media, assayed prior to adding serum. All solutions used for these experiments were prepared in a hood using standard aseptic procedures.

[3] = tested on: SW480 P3 (ATCC #CCL228) human colon carcinoma cells; assay: Screening assay for enhancement of transient expression (β-galactosidase gene, liposomal transfection, 6-well plates); assay type: cell-based
Source text: These parameters are called the “X” factor, the “G” factor, and the “K” factor. [formula]
This factor reflects the extent to which a chemical compound added to a transfected cell enhances stabilizes transient expression for the first four days following transfection. […] For example, if expression is doubled in the presence of a compound, […]. […] X may be calculated similarly when the agent in question is a mixture of more than one chemical compound.
Cumulative protein expression, i.e., the values for “A” and “C”, is measured by summing the values measured daily in aliquots of the cultured cells.
2. G factors. G factors differ from the X factor only with respect to the time period evaluated. For calculating a G factor, the amount of protein expressed is measured from days 4-7 or days 4-14, where day 0 is the day on which the foreign DNA is added to the cells. The subscripts denote which of the two time periods provided the basis for measurement. […] As for the X factor, [formula]
3. K factor. The K factor is the ratio of the rate constants for the change in the foreign DNA expression in control transfected cells and in cells exposed to a chemical compound of the subject invention. K is determined according to the following equation: [formula]
wherein “k(DNA)” is the first order rate constant for the change in concentration of the protein expressed from the transgenic DNA, which is expressing protein as a function of time, i.e., [formula]
Values for k(DNA) are derived by using a computer program that plots the log of the foreign protein concentration against time, using the results of transgenic protein measurements that begin about 24 hours after the foreign DNA has been added to the cell. […] However, the program calculates a “best fit” line for each data set, and determines the slope of that portion of the resulting line that corresponds to the period during which protein production is changing. […] Thus, the slope is calculated during this period of decline to provide values for k(DNA) and K that can be compared for the purpose of comparing the efficacy of different chemical compounds.
SW480 P3 (ATCC #CCL228) human colon carcinoma cells (typically, 1×10^6 cells) were plated in the wells of a 6-well tissue culture plate. The number of wells plated reflected the number of days post-transfection during which the experiment would proceed. Each well contained 1 ml of complete media from a 30 ml stock solution containing: 26.4 ml RPMI tissue culture medium, 4 mM L-glutamine, 3.0 ml fetal bovine serum, and 10 μg/ml gentamicin. Cells were cultured at 37° C. in a CO2 incubator with 10% CO2 for 24 hours after being plated, during which time the cells adhered to the plates.
After the 24 hour pre-incubation step, the transfection step was carried out by removing the RPMI and adding 900 μL OPTI-MEM® (Gibco) medium containing 2 μg of VR1412 DNA (Vical, Inc., San Diego, Calif.), which expresses the bacterial β-galactosidase gene under the control of a cytomegalovirus promoter, and 8 μg of a mixture of cationic lipid (1,2-dimyristyloxyproply-3-dimethyl-hydroxyethyl ammonium bromide (e.g., “DMRIE/DOPE”) mixed in equimolar proportions with dioleoylphosphatidylethanolamine) to yield a lipid:DNA molar ratio of 0.99:1. It should be noted that typical transient transfection protocols employ 10 μg DNA per 10^6 cells, but the protocol described here uses less DNA in order to reduce toxicity to the cells. The plates were then incubated for 4 hours at 37° C.
After the 4 hour incubation step, 100 μl of heat deactivated fetal bovine serum (to stop transfection), plus 12.0 μl of 50 mg/ml gentamicin were added to each well.

SW480 cells [4] = assay: Transient expression in HPBr hollow fiber perfusion bioreactor (2-week β-galactosidase production); assay type: cell-based, human; conditions: relatively high rotational speed
Description: A series of four lipofection-based gene transfection experiments were conductive in a high performance hollow fiber perfusion prototype bioreactor device (hereafter referred to as the […] device) in a Genespan prototype incubator instrument. The device consists essentially of a sterile chamber through which two sets of hollow fibers are passed. Culture medium is continuously circulated through one set of fibers, while gases required (e.g., oxygen and carbon dioxide) for cell growth are passed through the second set of fibers. The fibers are composed of a porous material through which gases and nutrients can pass in one direction, while waste molecules produced by the cells growing within the chamber can pass in the other direction. Cells growing in the device may remain in suspension, or may attach to the outer surfaces of both sets of hollow fibers.
A useful feature of the HPBr device is that the cells can be agitated by rotating the chamber through which the tubes pass. […]
Daily samples (about 1.5 ml) of cells and supernatant were taken from the cell compartment of each bioreactor and an equal volume of fresh media was added to replace it. Cell counts and viabilities were determined, and […] were lysed and retained for β-galactosidase determination using the spectrophotometric method described in Example 1. […]

Row | Compound | Cytotoxic (SW480 cells [1]) | Cytotoxic (SW480 cells [1]; listed as disaccharide units derived from Type A) | FACTOR G (SW480 cells [2]) | FACTOR K (SW480 cells [2]) | FACTOR X (SW480 cells [2]) | Total β-gal (ng) from 2 × 10^4 Cells in 14 Days (SW480 cells [2]) [ng] | effectiveness in enhancing transient expression (SW480 cells [2]) | effect on transient expression [3] | effect on transient expression when present before or during the transfection step ([3]; polyanionic carbohydrates, liposomal transfection) | cell adhesion to microcarrier (SW480 cells [4])
1 | CC(=O)N[C@H]1C(O)O[C@H](CO)[C@H](OS(=O)(=O)O)[C@@H]1O[C@@H]1OC(C(=O)O)=C[C@H](O)[C@H]1O (stereo partly drawn) [Chondro ΔDi-4S] | Yes | cytotoxic | 40.1 | 0.4 | −28.2 | 184.7 | – | – | – | –
2 | CC(=O)N[C@H]1C(O)O[C@H](COS(=O)(=O)O)[C@H](O)[C@@H]1O[C@@H]1OC(C(=O)O)=C[C@H](O)[C@H]1O (stereo partly drawn) [Chondro ΔDi-6S] | No | – | 39.0 | 1.3 | −32.7 | 932.2 | better results than the controls | – | – | –
3 | O=C[C@@H](O)[C@@H](O)[C@H](O)[C@H](O)CO [Mannose] | No | – | 23.5 | 1.0 | −23.6 | 730.4 | effective in enhancing transient expression | – | – | –
4 | chondroitin sulfate | – | – | – | – | – | – | – | capable of prolonging transient expression | allowed the transfection to proceed unimpeded; also recorded: enhanced transient expression | enabled the anchorage-dependent cells to adhere well to the microcarrier
